One data set has as its system Typhlodromus pyri. The data set is described as follows: LR50; higher = less toxic. As to conditions: acute; mortality.
Another data set has as its system Hyalella azteca. The settings on record: acute; duration: 96 hours; mortality.
Another data set concerns Tagia sp. As to conditions: acute; duration: 14 days; mortality.
For a further data set, the system named is Cyprinodon variegatus. The settings on record: acute; duration: 96 hours; oral; feed; mortality.
Another data set concerns Oryctolagus sp. As to conditions: developmental; development.
Another data set relates to Apis mellifera. The settings on record: acute, duration: 48 hours, mortality.
The next data set has as its system Lepomis macrochirus. As to conditions: acute; oral; feed; mortality.
A further data set concerns Bibionidae. The settings on record: chronic/long-term; duration: 29 days.
A further data set concerns Oncorhynchus mykiss. As to conditions: acute; duration: 96 hours; oral; feed; mortality.
Another data set deals with Cyprinus carpio. The settings on record: chronic/long-term.

≈ marks a conversion by molar mass, not a printed value.

What is called NOAEL is the highest dose or exposure tested at which no adverse effect was seen.

`N#CN=C1SCCN1Cc1ccc(Cl)nc1` [Thiacloprid]: in the data set on Typhlodromus pyri, the LR50 came to 0.331 g/ha. Moreover, the LC50 was over 47.6 µg/mL in the data set on Hyalella azteca; 105 mg/kg with Tagia sp.; 19.7 µg/mL (≈ 77.9 µM) in the data set on Cyprinodon variegatus; over 78.6 µg/mL in the data set on Lepomis macrochirus; over 90.1 µg/mL in the data set on Oncorhynchus mykiss. Further, the NOAEL was 2 mg/kg-day with Oryctolagus sp.; 15 mg/kg-day in the data set on Serinus canaria (acute, oral, unspecified, mortality); 1.2 mg/kg-day in the data set with Rattus norvegicus (chronic, histopathology: nonneoplastic); 2 mg/kg-day in the data set on Rattus norvegicus (developmental, development); 3.3 mg/kg-day in the data set with Rattus norvegicus (reproduction developmental, reproduction). Moreover, the LD50 came out at 38.8 µg/piece with Apis mellifera (dermal); 17.3 µg/piece with Apis mellifera (oral, unspecified); 3.5 mg/kg-day in the data set with Serinus canaria (chronic/long-term); 177 mg/kg-day in the data set with Rattus norvegicus (acute, oral, Fischer 344, mortality). Besides, the values for the NOEC in the data set on Bibionidae and with Cyprinus carpio were 0.63 µg/kg and 4.5 µg/L, respectively.
